Consider eight molecules from ChEMBL document CHEMBL5465560, “Selectivity Literature for EUbOPEN Chemogenomic Library” (2024).

Assay [1] deals with Cyclin-dependent kinase 14 (Homo sapiens) (UniProt O94921). Put plainly: Selectivity interaction (Ambit KINOMEscan and KiNATiv profiling in Jurkat cells) EUB0000090b CDK14. In kind it is cell-based. The note with it: at 1 µM.
The target in assay [2] is T1, Serine/threonine-protein kinase TBK1 (Homo sapiens) (UniProt Q9UHD2).
T1 sequence (whole entry): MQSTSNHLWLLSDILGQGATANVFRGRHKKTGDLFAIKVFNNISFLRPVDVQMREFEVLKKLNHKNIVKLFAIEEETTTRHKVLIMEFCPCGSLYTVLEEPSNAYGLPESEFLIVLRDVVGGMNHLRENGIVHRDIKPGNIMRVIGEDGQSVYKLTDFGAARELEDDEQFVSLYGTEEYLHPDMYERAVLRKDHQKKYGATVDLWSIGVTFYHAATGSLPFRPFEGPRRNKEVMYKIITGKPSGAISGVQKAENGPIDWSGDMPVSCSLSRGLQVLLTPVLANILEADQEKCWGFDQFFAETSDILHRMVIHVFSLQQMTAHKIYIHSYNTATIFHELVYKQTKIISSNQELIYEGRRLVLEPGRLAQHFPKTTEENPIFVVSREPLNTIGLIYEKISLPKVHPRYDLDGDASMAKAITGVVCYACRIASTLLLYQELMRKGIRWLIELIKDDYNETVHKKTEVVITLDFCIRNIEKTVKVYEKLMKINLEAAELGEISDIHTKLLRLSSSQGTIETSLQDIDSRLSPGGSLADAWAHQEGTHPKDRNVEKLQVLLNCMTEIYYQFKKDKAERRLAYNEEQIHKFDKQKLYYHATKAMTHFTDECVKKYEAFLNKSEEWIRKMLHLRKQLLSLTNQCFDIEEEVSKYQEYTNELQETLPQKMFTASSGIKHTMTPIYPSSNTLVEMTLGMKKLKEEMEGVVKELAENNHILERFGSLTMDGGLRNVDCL
The assay can be described thus: Selectivity interaction (KinomeScan (DiscoverX)) EUB0001079a TBK1. The note with it: at 1 µM.

Assay [3] concerns the target T2, Mitogen-activated protein kinase 13 (Homo sapiens) (UniProt O15264).
T2 sequence (whole entry): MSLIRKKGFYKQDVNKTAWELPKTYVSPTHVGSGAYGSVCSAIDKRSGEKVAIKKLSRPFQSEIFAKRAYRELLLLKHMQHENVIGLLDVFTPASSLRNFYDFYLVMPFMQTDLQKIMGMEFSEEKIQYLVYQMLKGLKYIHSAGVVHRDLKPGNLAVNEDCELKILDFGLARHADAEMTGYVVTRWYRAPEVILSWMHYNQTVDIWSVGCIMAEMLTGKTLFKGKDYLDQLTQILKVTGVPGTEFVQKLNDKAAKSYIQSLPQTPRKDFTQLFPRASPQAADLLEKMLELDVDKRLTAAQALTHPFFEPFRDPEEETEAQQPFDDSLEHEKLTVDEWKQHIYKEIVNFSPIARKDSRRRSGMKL
Put plainly: Selectivity interaction (Millipore kinase profiler) EUB0000124b MAPK13. The note with it: at 10 µM.

In assay [4] the target is Dual specificity protein kinase CLK3 (Homo sapiens, UniProt P49761). Put plainly: Selectivity interaction (KinomeScan (DiscoverX)) EUB0000666a CLK3. The note with it: at 10 µM.
Dual specificity protein kinase CLK3, sequence (P49761 whole entry, looked up, canonical isoform): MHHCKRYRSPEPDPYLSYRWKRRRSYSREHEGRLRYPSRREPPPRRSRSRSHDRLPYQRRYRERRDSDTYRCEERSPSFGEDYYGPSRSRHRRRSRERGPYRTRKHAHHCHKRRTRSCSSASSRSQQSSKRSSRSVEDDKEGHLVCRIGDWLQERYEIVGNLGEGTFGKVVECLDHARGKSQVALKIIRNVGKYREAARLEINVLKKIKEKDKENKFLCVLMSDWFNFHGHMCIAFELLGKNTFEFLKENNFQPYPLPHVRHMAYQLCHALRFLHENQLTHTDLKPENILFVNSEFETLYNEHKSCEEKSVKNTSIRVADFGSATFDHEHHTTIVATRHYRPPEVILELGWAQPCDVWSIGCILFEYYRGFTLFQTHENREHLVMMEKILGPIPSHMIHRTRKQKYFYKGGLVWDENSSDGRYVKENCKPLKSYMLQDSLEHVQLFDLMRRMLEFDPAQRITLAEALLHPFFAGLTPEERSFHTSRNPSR
Assay [5] addresses Casein kinase I isoform gamma-1 (Homo sapiens) (UniProt Q9HCP0). The assay can be described thus: Selectivity interaction (KinomeScan (DiscoverX)) EUB0000607a CSNK1G1. The note with it: at 10 µM.
The target of assay [6] is T3, Receptor-interacting serine/threonine-protein kinase 4 (Homo sapiens) (UniProt P57078).
T3 sequence (whole entry): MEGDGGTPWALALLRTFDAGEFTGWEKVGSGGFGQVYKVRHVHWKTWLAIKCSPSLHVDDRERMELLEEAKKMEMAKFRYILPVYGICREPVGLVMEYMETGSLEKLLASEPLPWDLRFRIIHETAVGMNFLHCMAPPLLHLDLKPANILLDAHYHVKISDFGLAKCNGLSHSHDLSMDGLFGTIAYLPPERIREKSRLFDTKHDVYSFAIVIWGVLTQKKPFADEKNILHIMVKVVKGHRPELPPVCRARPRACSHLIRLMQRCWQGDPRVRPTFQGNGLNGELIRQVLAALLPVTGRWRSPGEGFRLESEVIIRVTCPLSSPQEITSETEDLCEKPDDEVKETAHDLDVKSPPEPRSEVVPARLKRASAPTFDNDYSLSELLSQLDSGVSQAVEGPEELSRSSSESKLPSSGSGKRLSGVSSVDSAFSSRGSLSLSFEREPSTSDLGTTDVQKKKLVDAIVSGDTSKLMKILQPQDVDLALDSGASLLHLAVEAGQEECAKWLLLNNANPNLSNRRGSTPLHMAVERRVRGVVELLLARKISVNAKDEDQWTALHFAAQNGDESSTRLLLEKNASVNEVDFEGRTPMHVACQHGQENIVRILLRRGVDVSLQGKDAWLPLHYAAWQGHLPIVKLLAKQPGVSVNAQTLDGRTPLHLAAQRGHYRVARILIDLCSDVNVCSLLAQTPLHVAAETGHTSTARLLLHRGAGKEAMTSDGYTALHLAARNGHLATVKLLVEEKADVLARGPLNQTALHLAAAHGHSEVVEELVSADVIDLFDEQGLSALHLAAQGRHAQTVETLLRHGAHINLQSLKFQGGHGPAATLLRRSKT
Put plainly: Selectivity interaction (KinomeScan (DiscoverX)) EUB0000607a RIPK4. The note with it: at 10 µM.

Assay [7] deals with T4, Protein kinase C iota type (Homo sapiens) (UniProt P41743).
T4 sequence (whole entry): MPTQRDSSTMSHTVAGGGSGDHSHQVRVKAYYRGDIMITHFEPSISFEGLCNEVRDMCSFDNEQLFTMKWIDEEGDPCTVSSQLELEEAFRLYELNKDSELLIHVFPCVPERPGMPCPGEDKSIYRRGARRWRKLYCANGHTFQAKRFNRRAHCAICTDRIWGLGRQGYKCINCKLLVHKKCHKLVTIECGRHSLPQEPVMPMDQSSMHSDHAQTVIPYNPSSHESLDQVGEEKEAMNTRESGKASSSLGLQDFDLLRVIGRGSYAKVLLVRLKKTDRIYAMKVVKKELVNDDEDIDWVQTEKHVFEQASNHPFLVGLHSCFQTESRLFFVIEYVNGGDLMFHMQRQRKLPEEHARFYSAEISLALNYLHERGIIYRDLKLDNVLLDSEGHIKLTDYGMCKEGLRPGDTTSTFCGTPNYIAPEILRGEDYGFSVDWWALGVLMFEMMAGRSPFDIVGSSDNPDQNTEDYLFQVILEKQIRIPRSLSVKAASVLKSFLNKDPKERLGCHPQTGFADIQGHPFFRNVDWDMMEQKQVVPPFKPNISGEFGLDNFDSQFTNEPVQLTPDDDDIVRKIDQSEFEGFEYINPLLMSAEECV
The assay can be described thus: Selectivity interaction (ActivX KiNativ screen (kinase selectivity in THP-1 cell lysates)) EUB0000639a PRKCI. The format is subcellular. The note with it: lysate, at 1 µM.

Assay [8] has as its target Mitogen-activated protein kinase 10 (Homo sapiens, UniProt P53779). Put plainly: Selectivity interaction (Kinase panel (DSF assay)) EUB0001559a MAPK10.
Assay [9] deals with Mitogen-activated protein kinase kinase kinase kinase 4 (Homo sapiens, UniProt O95819). The assay can be described thus: Selectivity interaction (KinomeScan (DiscoverX)) EUB0000595a MAP4K4. The note with it: at 10 µM.
Mitogen-activated protein kinase kinase kinase kinase 4, sequence (O95819 2-1239 limits assumed): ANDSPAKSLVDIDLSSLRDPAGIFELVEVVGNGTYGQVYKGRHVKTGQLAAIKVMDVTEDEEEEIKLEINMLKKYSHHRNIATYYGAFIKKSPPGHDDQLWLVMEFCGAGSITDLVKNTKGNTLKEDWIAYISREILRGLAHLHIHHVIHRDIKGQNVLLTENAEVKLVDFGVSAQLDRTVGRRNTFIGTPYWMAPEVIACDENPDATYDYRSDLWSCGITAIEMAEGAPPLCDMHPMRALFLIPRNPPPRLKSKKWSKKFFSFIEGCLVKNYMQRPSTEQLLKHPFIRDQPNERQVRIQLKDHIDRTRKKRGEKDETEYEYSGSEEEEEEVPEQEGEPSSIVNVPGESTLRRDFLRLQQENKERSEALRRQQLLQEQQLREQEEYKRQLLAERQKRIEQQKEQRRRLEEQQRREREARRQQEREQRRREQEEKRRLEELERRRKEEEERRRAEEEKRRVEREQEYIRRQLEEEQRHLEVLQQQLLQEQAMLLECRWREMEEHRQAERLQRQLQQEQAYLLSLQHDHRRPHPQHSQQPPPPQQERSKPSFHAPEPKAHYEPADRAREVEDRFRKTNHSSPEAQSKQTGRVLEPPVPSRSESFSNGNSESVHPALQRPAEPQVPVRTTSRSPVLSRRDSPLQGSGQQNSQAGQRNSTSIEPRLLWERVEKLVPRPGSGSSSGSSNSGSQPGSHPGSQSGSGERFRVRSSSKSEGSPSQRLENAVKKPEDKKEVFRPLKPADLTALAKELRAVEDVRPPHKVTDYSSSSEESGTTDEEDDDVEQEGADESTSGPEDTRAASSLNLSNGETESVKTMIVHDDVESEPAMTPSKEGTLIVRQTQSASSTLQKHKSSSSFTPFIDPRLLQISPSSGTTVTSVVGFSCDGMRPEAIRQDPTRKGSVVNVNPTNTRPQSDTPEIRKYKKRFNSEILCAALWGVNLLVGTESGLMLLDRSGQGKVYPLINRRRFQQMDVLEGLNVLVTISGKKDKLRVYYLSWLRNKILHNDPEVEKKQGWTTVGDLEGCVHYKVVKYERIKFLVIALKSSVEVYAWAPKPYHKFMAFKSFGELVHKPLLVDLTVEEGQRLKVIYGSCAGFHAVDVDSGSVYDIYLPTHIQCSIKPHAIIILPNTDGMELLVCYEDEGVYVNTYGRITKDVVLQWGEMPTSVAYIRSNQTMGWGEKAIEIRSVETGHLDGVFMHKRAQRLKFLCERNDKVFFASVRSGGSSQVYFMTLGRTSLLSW

Casein kinase I isoform gamma-1 (Homo sapiens), sequence (Q9HCP0 whole entry, looked up, canonical isoform): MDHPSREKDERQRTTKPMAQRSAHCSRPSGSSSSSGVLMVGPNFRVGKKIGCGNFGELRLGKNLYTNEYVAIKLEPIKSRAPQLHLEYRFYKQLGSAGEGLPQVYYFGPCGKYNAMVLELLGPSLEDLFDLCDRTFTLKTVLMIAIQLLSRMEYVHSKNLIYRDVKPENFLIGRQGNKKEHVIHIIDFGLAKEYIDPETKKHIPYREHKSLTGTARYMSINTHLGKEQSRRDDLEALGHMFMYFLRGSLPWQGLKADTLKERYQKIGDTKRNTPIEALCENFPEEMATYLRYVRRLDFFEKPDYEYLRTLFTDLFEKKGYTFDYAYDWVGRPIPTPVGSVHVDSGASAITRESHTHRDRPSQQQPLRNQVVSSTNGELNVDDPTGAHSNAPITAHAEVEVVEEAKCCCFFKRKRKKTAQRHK
Mitogen-activated protein kinase 10, sequence (P53779 whole entry): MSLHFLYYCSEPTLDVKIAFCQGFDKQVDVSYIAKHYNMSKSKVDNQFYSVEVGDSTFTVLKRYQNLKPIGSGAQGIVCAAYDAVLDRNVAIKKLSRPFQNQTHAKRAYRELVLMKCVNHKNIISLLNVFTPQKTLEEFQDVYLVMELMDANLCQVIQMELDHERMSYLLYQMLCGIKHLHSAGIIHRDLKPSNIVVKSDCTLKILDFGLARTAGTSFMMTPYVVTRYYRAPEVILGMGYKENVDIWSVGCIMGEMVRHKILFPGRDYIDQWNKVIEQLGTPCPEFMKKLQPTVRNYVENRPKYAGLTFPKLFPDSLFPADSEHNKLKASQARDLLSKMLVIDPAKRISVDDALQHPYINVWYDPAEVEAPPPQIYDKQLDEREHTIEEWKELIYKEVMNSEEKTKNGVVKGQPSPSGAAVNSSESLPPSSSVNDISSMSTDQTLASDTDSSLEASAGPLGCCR
Cyclin-dependent kinase 14 (Homo sapiens), sequence (O94921 whole entry): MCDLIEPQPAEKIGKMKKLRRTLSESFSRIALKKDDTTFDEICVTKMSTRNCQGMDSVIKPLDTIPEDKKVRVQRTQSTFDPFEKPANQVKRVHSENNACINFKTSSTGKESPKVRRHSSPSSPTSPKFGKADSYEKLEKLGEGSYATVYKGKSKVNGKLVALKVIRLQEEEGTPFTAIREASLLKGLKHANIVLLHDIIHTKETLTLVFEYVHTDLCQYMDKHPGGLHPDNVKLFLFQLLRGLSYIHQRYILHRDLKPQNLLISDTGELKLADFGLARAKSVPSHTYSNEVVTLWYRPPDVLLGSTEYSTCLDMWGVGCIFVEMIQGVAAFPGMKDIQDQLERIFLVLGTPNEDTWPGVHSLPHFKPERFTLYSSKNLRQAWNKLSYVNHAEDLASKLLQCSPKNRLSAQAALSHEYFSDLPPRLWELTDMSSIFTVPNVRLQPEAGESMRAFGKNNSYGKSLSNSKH

Turning to `CN(C)C/C=C/C(=O)Nc1ccc(C(=O)N2CCCC(Nc3ncc(Cl)c(-c4c[nH]c5ccccc45)n3)C2)cc1` (centres undefined), the % of control in assay [1] was 69%.

For the molecule `Nc1cnc(N2CCc3cc(S(=O)(=O)Nc4c(F)cc(Cl)cc4F)cc(N4CCCC4=O)c32)nc1` [TP-020n], in assay [2], the % of control came out at 85%.

Turning to `CC(=O)Nc1cccc(-n2c(=O)n(C3CC3)c(=O)c3c(Nc4ccc(I)cc4F)n(C)c(=O)c(C)c32)c1`, the % of control in assay [3] was found to be 109%.

`O=C(NOC[C@H](O)CO)c1ccc(F)c(F)c1Nc1ccc(I)cc1F` gave a % of control in [4] of 100%.

As to `CNC(=O)Nc1ccc(-c2nc(N3CC4CCC(C3)O4)c3cnn(C4CCC5(CC4)OCCO5)c3n2)cc1`, the % of control in [5] came to 54%; in assay [6], 98%.

Consider `CC[C@@H]1[C@H](F)C(=O)N[C@@H]1COc1nccc2cc(C(N)=O)c(OC)cc12` [ZIMLOVISERTIB], for which the % of inhibition in assay [7] is 2.2%.

Consider `CN(C(=O)c1cnn2cccnc12)c1cc2c(cc1N1CCOCC1)C(=O)N(C[C@@H](F)C(C)(C)O)C2`, for which, in [8], the dTM was -0.8 K.

In [9], `COCC(=O)NC/C=C/c1ccc2ncnc(Nc3ccc(Oc4ccc(C)nc4)c(C)c3)c2c1` [CP-724714] showed a % of control of 97%.
